“And” between values parts separate entries of the source, which are not always exact repeats. Identical values can stand only once.
What was measured:
Tropical corn = experiment: Treatment of tropical corn with single or multiple applications of 1-MCP, crop yield; type: in vivo; settings: for Yield increase in kg/ha, Single app. @ V3-5: single application at stage of 3-5 fully collared leaves; for Yield increase in kg/ha, Single app @ V10: single application at stage of 10 leaves; for Yield increase in kg/ha, Double app. @ V3&10: two applications, 3-5 fully collared leaves and 10 leaf stage
Description: Tropical corn is treated with a combination of extruded granules of dextrose containing 0.1% 1-MCP and coated sand granules also containing 0.1% 1-MCP. The plants are treated with (1) a single application at the stage of 3-5 fully collared leaves; (2) a single application at the stage of 10 leaves; or (3) two applications with a first application at stage of 3-5 fully collared leaves and a second application at the 10 leaf stage. Dosages of 5 g/hectare, 10 g/hectare, and 25 g/hectare 1-MCP are applied for each of the three different treatment regimes.
The results are presented in Table 1 and FIG. 1 with yield being measured in kg/hectare. For each dosage amount the left bar designates treatment 1 (a single application at the stage of 3-5 fully collared leaves), the middle bar designates treatment 2 (a single application at the stage of 10 leaves), and the right hand bar designates treatment 3 (application at both the stage of 3-5 fully collared leaves and again at the 10 leaf stage). For each of the 5 g/hectare treatment, the 10 g/hectare treatment, and the 25 g/hectare treatment, the yield is increased by more than 150% for plants undergoing two treatments when compared to plants treated only once.

cotton = experiment: Treatment of tropical cotton with single or multiple applications of 1-MCP, seed cotton yield; type: in vivo; settings: 9.6 GAI/HA
Description: Four different replicates of treatment of cotton are performed. […] Treatment A designates application of cyclopropene at the stage of Pin Head Square +14 days. Treatment B designates application of cyclopropene at the stage of first flowers. […]

CC1=CC1 [1-MCP, 1-methylcyclopropene]
Yield increase in kg/ha, Single app. @ V3-5 (Tropical corn; 5 g/ha 1-MCP): 506 kg/ha | Yield increase in kg/ha, Single app @ V10 (Tropical corn; 5 g/ha 1-MCP): 351 kg/ha | Yield increase in kg/ha, Double app. @ V3&10 (Tropical corn; 5 g/ha 1-MCP): 1082 kg/ha | yield increase for plants undergoing two treatments compared to plants treated only once (Tropical corn; 5 g/hectare treatment): more than 150% | Yield increase in kg/ha, Single app. @ V3-5 (Tropical corn; 10 g/ha 1-MCP): 557 kg/ha | Yield increase in kg/ha, Single app @ V10 (Tropical corn; 10 g/ha 1-MCP): 618 kg/ha | Yield increase in kg/ha, Double app. @ V3&10 (Tropical corn; 10 g/ha 1-MCP): 1580 kg/ha | yield increase for plants undergoing two treatments compared to plants treated only once (Tropical corn; 10 g/hectare treatment): more than 150% | Yield increase in kg/ha, Single app. @ V3-5 (Tropical corn; 20-25 g/ha 1-MCP): 826 kg/ha | Yield increase in kg/ha, Single app @ V10 (Tropical corn; 20-25 g/ha 1-MCP): 543 kg/ha | Yield increase in kg/ha, Double app. @ V3&10 (Tropical corn; 20-25 g/ha 1-MCP): 1539 kg/ha | yield increase for plants undergoing two treatments compared to plants treated only once (Tropical corn; 25 g/hectare treatment): more than 150% | Yield difference between treated plots and untreated checks, Double Applications AB: Floral buds enlarged/Early bloom, average (cotton; average of trials 1-5): 713 kg/ha of seed cotton | Yield difference between treated plots and untreated checks, Double Applications BC: Early bloom/10% of bolls at final size, average (cotton; average of trials 1-5): 796 kg/ha of seed cotton | Yield difference between treated plots and untreated checks, Single Application A: Floral buds distinctly enlarged, average (cotton; average of trials 1-5): 577 kg/ha of seed cotton | Yield difference between treated plots and untreated checks, Single Application B: Early bloom, average (cotton; average of trials 1-5): 568 kg/ha of seed cotton | Yield difference between treated plots and untreated checks, Single Application C: 10% of bolls at final size, average (cotton; average of trials 1-5): 512 kg/ha of seed cotton | Yield difference between treated plots and untreated checks, Double Applications AB: Floral buds enlarged/Early bloom (cotton; individual trials 1-5): 560 kg/ha of seed cotton and 185 kg/ha of seed cotton and 883 kg/ha of seed cotton and 1563 kg/ha of seed cotton and 375 kg/ha of seed cotton | Yield difference between treated plots and untreated checks, Double Applications BC: Early bloom/10% of bolls at final size (cotton; individual trials 1-5): 696 kg/ha of seed cotton and 262 kg/ha of seed cotton and 1042 kg/ha of seed cotton and 1667 kg/ha of seed cotton and 313 kg/ha of seed cotton | Yield difference between treated plots and untreated checks, Single Application A: Floral buds distinctly enlarged (cotton; individual trials 1-5): 571 kg/ha of seed cotton and 167 kg/ha of seed cotton and 767 kg/ha of seed cotton and 1132 kg/ha of seed cotton and 250 kg/ha of seed cotton | Yield difference between treated plots and untreated checks, Single Application B: Early bloom (cotton; individual trials 1-5): 839 kg/ha of seed cotton and 369 kg/ha of seed cotton and 767 kg/ha of seed cotton and 757 kg/ha of seed cotton and 106 kg/ha of seed cotton | Yield difference between treated plots and untreated checks, Single Application C: 10% of bolls at final size (cotton; individual trials 1-5): 780 kg/ha of seed cotton and 280 kg/ha of seed cotton and 792 kg/ha of seed cotton and 715 kg/ha of seed cotton and −6 kg/ha of seed cotton

Reference: patent publication US20140235447A1, “METHODS FOR […] YIELD” (Syngenta Crop Protection LLC, priority 2013, published 2014)
